We go through six substances from patent US7553929B2, “Cell permeable peptides for inhibition of inflammatory reactions and methods of use” (Vanderbilt University, priority 1994, dated 2009).

Where two headings read alike, the source gives them in different places. Bridges are numbered along the chain shown (N, C = ends). Where no end group is shown, it is not given here.

Data set [1] deals with NIH 3T3 cells. As to the kind of experiment: Cytotoxicity by staining with fluorescein diacetate/ethidium bromide. The class given is cell-based. The following applies: 0 to 46 μM. As for the experimental part:
(§1) Bars represent the mean±S.E.M. of at least three independent experiments done in triplicate and calculated as multiplicity of counts in the tested sample over the control sample. SA peptide within the concentration range used (0 to 46 μM) was not cytotoxic as determined by staining with fluorescein diacetate/ethidium bromide. ^20

For data set [2], the system named is NIH 3T3 cells. The data set is described as follows: [3H]thymidine incorporation (mitogenic response) of NIH 3T3 cells. The following applies: comparable concentration ranges. The class given is cell-based. As for the experimental part:
A 26-residue hybrid peptide (referred to as SA, listed herein as SEQ ID NO:3) was designed and synthesized. […] Thus, the SA peptide differs from the SM peptide only in its 7-residue carboxyl terminal “cargo” region. A functional assay was performed in which SA peptide was able to induce a mitogenic response of NIH 3T3 cells measured by [^3H]thymidine incorporation in a manner similar to aFGF bearing, the same NLS. ^18
In this functional assay, confluent 3T3 cells grown initially in DMEM containing 10% FBS were transferred to a low serum medium (DMEM containing 0.5% FBS) for 2 days. The test peptides, either SA peptide, SAα pep-tide, ANL peptide, or SM peptide, or aFGF, were added to a fresh low serum medium at the indicated concentrations at 37° C. After 16 hours, [^3H]thymidine was added and 4 hours later, the cells were washed with PBS, treated with trichloroacetic acid, solubilized with 0.15 M NaOH, and the radioactivity was determined in a liquid scintillation counter.
as §1
Background: Uptake of a labelled nucleoside into DNA is a usual measure of proliferation.

The test system of data set [3] is NIH 3T3 cells. The data set is described as follows: Indirect immunofluorescence assay of peptide import into NIH 3T3 cells. The following applies: SAα-treated NIH 3T3 cells. The class given is cell-based. The source says: A 26-residue peptide (referred to as SM, listed herein as SEQ ID NO:1) that contained the predicted signal sequence of Kaposi fibroblast growth factor ^16-17 (K-FGF) was chemically synthesized. An indirect immunofluorescence assay using antibody against epitope tag-containing SM peptide was employed to follow translocation of the SM peptide to the intracellular compartments of NIH 3T3 cells. A polyclonal anti-SM peptide antibody against the SM peptide-keyhole limpet haemocyanin conjugate (Pierce) was raised in rabbits and reacted with SM peptide in ELISA (titer>1:30,000). The intracellular SM peptide was detected by an indirect imrnmunofluorescence assay using affinity-purified anti-SM peptide IgG and rhodamine-labeled anti-rabbit antibody (Kirkegaard & Perry). Briefly, confluent NIH 373 cells on the chamber slides (Nunc) were treated with either 0.5 ml SM peptide solution (100 μg ml^−1) in DMEM containing 10% FBS or with 0.5 ml DMEM containing 10% FBS only for 30 minutes at 37° C. The cells were fixed with 3.5% paraformaldehyde solution in PBS followed by 0.25% Triton X-100 in PBS and then treated with 1:20 anti-SM peptide IgG in PBS containing 0.5% bovine serum albumin (BSA) for 1.5 h. The intracellular SM peptide-antibody complexes were visualized by subsequent incubation with a rhodamine-labeled anti-rabbit polyclonal antibody for 1 h. In control systems, anti-SM peptide antibody was preabsorbed with the SM peptide. Intracellular localization of the SAα peptide was detected by immunofluorescence assay using affinity-purified anti-SM peptide IgG as described above for SM peptide. […] A ten-step z-position sectional scanning of the SM peptide-treated cells by the confocal laser scanning microscopy (CLSM) affirmed that these deposits were intracellular. […] Likewise, cells not exposed to SM peptide or cells exposed to SM peptide followed by the secondary antibody alone were negative. If cells were fixed with paraformaldehyde before peptide treatment, the cellular import of SM peptide was prevented.
To determine the rate of SM peptide import across cell membranes, a kinetic experiment was carried out with the SM peptide-treated NIH 3T3 cells. NIH 3T3 cells were treated at 37° C. with 0.5 ml SM peptide at 100 μg mL^−1 in DMEM containing 10% FBS for 1, 5, 15, 30, 60 and 120 minutes. Intracellular SM peptide deposits were detected by indirect immunofluorescence assay as described above. […] The 30-minute time point was therefore selected to determine the optimal peptide concentrations for detectable import.
To determine the optimal peptide concentration, NIH 3T3 cells were treated for 30 minutes at 37° C. with 0.5 ml SM peptide solution in DMEM containing 10% FBS at the following concentrations: 0, 2, 10, 50, 100, and 150 μg ml^−1. Intracellular localization of the SM peptide was detected by indirect immunofluorescence assay as described above. […] The cellular import was concentration-dependent and reached a plateau between 50 μg/ml and 100 μg/ml.
Transport of the SM peptide across the cell membrane was temperature-dependent. […] Accordingly, cellular import of the SM peptide resumed when the incubation temperature shifted from 4° C. to 37° C.
The intracellular SA peptide could not be tracked by an immunofluorescence assay because it was not recognized by the available anti-SM peptide antibody. However, attaching two extra amino acid residues (Met-Pro) to the carboxyl terminus of the SA peptide produced a modified SA peptide (referred to as SAα, listed herein as SEQ ID NO:4) that contained a 3-amino acid epitope tag, Leu-Met-Pro, recognized by anti-SM peptide antibody in ELISA. […] Like SA peptide, SAα peptide was mitogenic in the thymidine incorporation assay.

Data set [4] has as its system NIH 3T3 cells. The data set is described as follows: Import of 125I-labeled peptide into NIH 3T3 cells (cell-associated radioactivity; ATP depletion, protease treatment). The class given is cell-based. The following applies: for Counts in cells: 15 ng, 30 min; for Counts in cell lysates / Counts in supernatants: 5 min. The source says: Intracellular localization of the membrane-permeable peptide was also shown by treatment of cells with proteases following peptide import. For this experiment, 41-residue peptide (referred to as SEP and listed herein as SEQ ID NO:6) that contained the same hydrophobic sequence as SM peptide followed by the sequence of K-FGF(129-153) was designed and synthesized. The latter was present in KP peptide not containing hydrophobic sequence that served as the control for the membrane-permeable SKP peptide. […] The intracellular ^125I-SKP peptide was resistant to the action of proteases.
Both SKP and KP peptides were radiolabeled with ^125I by the lodogen method (Pierce). The specific activities of both peptides were similar (2.5×10^4 cpm/ng). NIH 3T3 cells were subcultured on a 60-mm dish and incubated at 37° C. for 3 days. The confluent monolayers (1.6×10^6 cells) on each dish were then washed twice with PBS and treated with 15 ng of ^125I-SKP or ^125I-KP peptide at 37° C., for the indicated time. The cells were washed eight times with PBS and twice with 2 M NaCl buffer (pH 7.5) until no radioactivity could be detected in the washings. The washed cells were lysed in lysis buffer (10 mM Tris-HCl, pH 7.0, 0.1 mM EDTA, 1 mM phenylmethylsulphony fluoride, 1 mM dithiothreitol, and 1% Triton X-100) and the radioactivity in the cell lysates was counted in a Packard auto-gamma counter. In some experiments, the washed cells were further treated with pronase (1 mg/ml) or trypsin (0.05%) solution in DMEM for 5 min at 37° C. The supernatants and cells were separated and their radioactivities were counted separately. For ATP depletion assay, cells were incubated with 5 μglml antimycin, 6.5 mM 2-deoxyglucose, and 10 mM glucono-δ-lactone in DMEM for 2 h at 37° C. before addition of ^125I-SKP peptide. The levels of ATP in ATP-depleted cells and normal cells were determined by ATP bioluminescent assay kit (Sigma).
For ATP depletion assay, confluent NIH 3T3 cells (1.6×10^6 cells) in each dish were treated with or without ATP depleting reagents (antimycin, 2deoxyglucose, and glucono-δ-lactone) for 2 h at 37° C. Cells were then treated with 15 ng of ^125I-SKP peptide for 30 min at 37° C. After complete removal of extracellular^125I-labeled peptides, the radioactivity in the cell lysates was counted. For the assay using proteases, cells were treated with ^125 I-SKP peptide and washed as described above. The ^125I-SKF peptide-associated cells were then treated with pronase (1 mg/ml), trypsin (0.05%), or diluent for 5 min at 37° C. The radio-activities in the cell lysates and supernatants were counted separately. Data in Table 1 represent the mean the mean ±SEM of triplicate determinations of a single experiment. The experiment was repeated three times with similar results.

Data set [5] relates to rodent endothelial cell line (LE-II). As to the kind of experiment: Indirect immunofluorescence assay of peptide import, LE-II cells. The class given is cell-based.
Data set [6] deals with NF-κB. The class given is cell-based, murine. The following applies: J774, LPS 10 ng/ml, peptide 31 μM (Example II).
Data set [7] relates to rabbits. The data set is described as follows: Localized Shwartzman reaction (LPS-induced skin inflammatory reaction) in rabbits. The class given is in vivo, rabbit. The following applies: intradermal application prior to the second LPS injection.
Data set [8] concerns NF-κB complex. The following applies: for Inducible nuclear import of NF-κB, LPS / Inducible nuclear import of NF-κB, TNFα: LEII.
Data set [9] has as its system NF-κB. The class given is cell-based.

In the case of AAVALLPAVLLALLAPAAANYKKPKL [SA peptide], the Cytotoxicity entry in [1] was “not cytotoxic”.
As for “Asn-Tyr-Lys-Lys-Pro-Lys-Leu (NYKKPKL) (1..7 Note/label = a (“Nuclear localization sequence of aFGF”)) [ANL peptide, 7-residue peptide representing the NLS of aFGF, reference compound]”, the “Mitogenic activity in thymidine incorporation assay” value in data set [2] is “Neither control peptide showed any significant mitogenic activity”.
As to “SAα peptide: SA peptide with two extra residues (Met-Pro) at the carboxyl terminus (AAVALLPAVLLALLAPAAANYKKPKLMP; 1..16 Note/label = a (“Signal peptide amino acid sequence of K-FGF”))”, the “Intracellular peptide staining with anti-SM peptide antibody” value in [3] is reported as “punctate staining pattern”. Besides, the “Mitogenic activity in thymidine incorporation assay” value in [2] is “mitogenic”.
Consider “SKP peptide: 41-residue peptide: same hydrophobic sequence as SM peptide followed by K-FGF(129-153); tested 125I-radiolabeled (AAVALLPAVLLALLAPEILLPNNYNAYESYKYPGMFIALSK; also: 125I radiolabel, site not given here)”, for which the “Radioactivity detected in peptide-treated cells” value in data set [4] (15 ng 125I-peptide, 37° C.) is “Substantial radioactivity was detected”. Further, the Counts in cells was 22,266 ± 3,602 cpm/1.6 × −10′ cells in data set [4] (ATP-depleted cells, 37° C.) and 20,189 ± 2,109 cpm/1.6 × −10′ cells in [4] (untreated (ATP-positive) cells, 37° C.). Further, the “Counts in cell lysates” value is recorded as 21,323 ± 853 in [4] (no protease (diluent), 37° C.) and 21,791 ± 1,953 in data set [4] (pronase 1 mg/ml, 37° C.). Moreover, the Counts in supernatants in data set [4] (no protease (diluent), 37° C.) was 2,966 ± 838; in data set [4] (pronase 1 mg/ml, 37° C.), 1,979 ± 75; in [4] (trypsin 0.05%, 37° C.), 655 ± 70. The “Loss of cell-associated radioactivity after protease treatment” value in data set [4] (pronase or trypsin) is listed as “no significant loss of cell-associated radioactivity was observed”.
“SN50 peptide: 26-residue peptide: K-FGF signal sequence (residues 1-16) and NLS of NF-kB p50 subunit (residues 17-26) (AAVALLPAVLLALLAPVNRKRNKLMP)”: the “Intracellular distribution compared to intracellular SM peptide” value in [5] was “more nuclear staining pattern”. The “Nuclear import of NF-κB induced by LPS” value in data set [6] is “blocked”. Moreover, the “Localized skin inflammatory reaction (Evans' Blue area)” value in data set [7] is “greatly diminished area of blue discoloration”. For the same substance, the “Inducible nuclear import of NF-κB, LPS” value in [8] (LPS 10 ng/ml (Example II)) and in data set [8] (LPS 10 ng/ml (Example III)) was “inhibited” in each case. In addition, the “Inducible nuclear import of NF-κB, TNFα” value in data set [8] (TNFα 20 U/ml (Example III)) and in data set [8] (TNFα 100 U/ml (Example II)) was “inhibited” throughout.
With “cSN50 peptide: cyclic peptide designed by inserting two cysteines flanking the NLS motif of SN50 (AAVALALLPAVLLALLAPCYVQRKRQKLMPC; disulfide 19-31 (inferred))”, the “SEB-induced NF-κB nuclear import” value in [9] is “increasing inhibition of SEB-induced NF-κB nuclear import”. In addition, the “Potency relative to the prototypical SN50 peptide (phosphoimager analysis)” value in [8] (cSN50 versus SN50) is listed as 3-10 times.
